Data reported in BindingDB's records for doi:10.1158/0008-5472.CAN-07-0320 (University Hospital Basel, 2007).

What was measured:
[1] = target: Serine/threonine-protein kinase pim-2 (Homo sapiens, UniProt Q9P1W9); assay: Kinase Inhibition Assay; conditions: pH 7.5; 25 °C
Description: (§1) Phosphorylation reactions were monitored using a coupled-enzyme assay in which ADP production was coupled to NADH oxidation by pyruvate kinase and lactate dehydrogenase. The assay was carried out in a buffer containing phosphoenolpyruvate, NADH, pyruvate kinase, lactate dehydrogenase, and PIM kinase. The reaction was monitored at 340 nm at 25 deg C on a Spectramax spectrophotometer (Molecular Devices) and started by addition ATP after a 10-min preincubation at 25 deg C. A recognition peptide of the PIM1 substrate p21 ([…]) was used. DMSO-dissolved inhibitors were added at the preincubation period resulting in a 2% final DMSO. Kinetic analysis was done by nonlinear regression fitting using the program KaleidaGraph (Synergy Software).

[2] = target: Serine/threonine-protein kinase pim-1 (Homo sapiens, UniProt P11309); assay: Kinase Inhibition Assay; conditions: pH 7.5; 25 °C
Chain of Serine/threonine-protein kinase pim-1 (P11309 whole entry): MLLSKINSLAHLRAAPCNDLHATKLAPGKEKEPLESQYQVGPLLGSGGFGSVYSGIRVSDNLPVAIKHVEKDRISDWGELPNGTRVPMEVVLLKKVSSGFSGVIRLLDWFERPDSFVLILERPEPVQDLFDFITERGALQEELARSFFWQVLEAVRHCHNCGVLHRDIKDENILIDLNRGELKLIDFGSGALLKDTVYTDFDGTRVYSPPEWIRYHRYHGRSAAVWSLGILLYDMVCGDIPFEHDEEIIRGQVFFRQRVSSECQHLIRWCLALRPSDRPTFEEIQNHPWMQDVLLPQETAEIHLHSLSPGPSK
Description: as §1

Chain of Serine/threonine-protein kinase pim-2 (Q9P1W9 whole entry): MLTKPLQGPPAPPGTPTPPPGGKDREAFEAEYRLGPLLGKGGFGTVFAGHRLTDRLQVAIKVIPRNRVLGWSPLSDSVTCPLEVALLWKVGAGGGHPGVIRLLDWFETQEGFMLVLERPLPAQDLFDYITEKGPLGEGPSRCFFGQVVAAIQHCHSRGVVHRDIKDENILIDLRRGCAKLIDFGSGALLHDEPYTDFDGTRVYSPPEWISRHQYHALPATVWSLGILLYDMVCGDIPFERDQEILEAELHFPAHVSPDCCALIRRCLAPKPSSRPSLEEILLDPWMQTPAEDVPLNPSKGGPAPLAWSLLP

IC50 [1] [nM]	IC50 [2] [nM]	SMILES
1800		CC(=O)c1cccc(-c2cnc3ccc(NCC4CC4)nn23)c1 [1-(3-{6-[(cyclopropylmethyl)amino]imidazo[1,2-a]pyridazin-3-yl}phenyl)ethan-1-one]
7100	50	Clc1cccc(-c2cnc3ccc(NC4CCOCC4)nn23)c1 [K00152]
2500	40	CCC(CO)Nc1ccc2ncc(-c3ccc(F)c(Cl)c3)n2n1 (stereo not given) [K00486]
